Assay results: patent US20250186379A1, “METHODS AND AGENTS FOR DECREASING INSULIN RESISTANCE” (Whitehead Institute for Biomedical Research, priority 2021, published 2025)

System: phosphorylated IRS1 (pIRS1)
Assay: Imaging of phosphorylated IRS1 in IR condensates in HepG2 cells
Format: cell-based, human
Description: HepG2 cells, human liver spheroids, human primary adipocytes and human tissue liver sections were fixed in 4% PFA (VWR, BT140770-10X10) in PBS (Life Technologies, AM9625) for 10 minutes at room temperature. Cells were washed three times for 5 minutes in PBS, permeabilized with 0.5% TritonX100 (Sigma Aldrich, X100) in PBS, washed three times for 5 minutes in PBS, and then blocked with 4% IgG-free BSA (VWR, 102643-516) for 15-60 minutes at room temperature. Afterwards, the cells were incubated with 1:500 or 1:1000 primary antibody (specific antibodies listed below) in 4% IgG-free BSA in PBS at 4° C. overnight. […]
To quantify pIRS1 fluorescent signal in IR puncta/condensates manually, Airyscan images were opened on Fiji as composite images. A circle or an oval was drawn around IR puncta using the oval selection tool and the average fluorescence intensity of pIRS1 in the circle or oval (=in the puncta/condensates) was determined using the measure tool on Fiji.
To quantify pIRS1 fluorescent signal in IR puncta/condensates computationally using Fiji, 3D object counter tool was used. […] 3D object counter tool then determined the intensity pIRS1 channel in the identified IR puncta. pIRS1 signal intensity was then background subtracted by a threshold determined by averaging the background intensity in a rectangular region outside of the cells.

Compound | levels of phosphorylated IRS1 in IR-containing condensates (insulin-resistant cells + metformin, 3 nM insulin 5 min (FIG. 18C)) | intensity of pIRS1 at IR condensates (insulin-sensitive HepG2 cells, 3 nM insulin 5 min (FIG. 17F))
CN(C)C(=N)N=C(N)N [metformin, reference compound] | partially rescued | 
insulin: insulin (Sigma Aldrich, I9278-5ML) used for acute stimulation and chronic physiological or pathological exposure |  | increased
